Data on 20 compounds can be found in patent US20260306640A1, “TECHNOLOGIES TARGETING CELL STATES” (Auron Therapeutics, Inc., priority 2023, published 2026).

The test system of one test is MOLM-13 cells. Kind of test: Cell growth inhibition, AML cell line MOLM-13 (CyQuant, day 7). Format: cell-based. The following applies: Homo sapiens, 168 h; MOLM-13, day 7, CyQuant; read-out: MOLM13 GI50. The source says:
(§1) Among other things, provided technologies are useful for treating various diseases, disorders, or conditions. For example, in some embodiments, provided technologies are useful for treating cancer as confirmed in the present Example. […] In some embodiments, provided technologies can inhibit cell proliferation. In some embodiments, the present disclosure provides technologies for assessing various technologies, e.g., compounds, compositions, or methods. Among other things, the present Example provides technologies, e.g., cell growth inhibition assay, for assessing various technologies. […] In some embodiments, the following cell growth inhibition methods are utilized to assess provided technologies.
AML: AML cell line MOLM-13 cells were cultured in RPMI+15% FBS and were plated at 500 cells/well in 100 uL media in a U-bottom 96-well plate. Compounds were dilute to 3×final in full media and 50 uL were added to corresponding wells. Compound and media were replenished on days 2 and 5. On day 7, cells were transferred to a 96-well black bottom plate and CyQuant was performed per manufacturer's instructions.
(§2) In some assessments, for cell growth inhibition, cells, e.g., MOLM13, NCI-H1048, and LASCPC-01 cells, were counted using a hemocytometer or automated cell counting in triplicates. In some assessments, proliferation in NEPC organoids as measured with Cell Titer Glo reagent (Promega). Growth inhibition was determined relative to vehicle control.

The next test deals with NCI-H1048 cells. Kind of test: Cell growth inhibition, SCLC cell line NCI-H1048 (cell count, day 11). It is filed as cell-based, human. The settings on record: Homo sapiens, 264 h; NCI-H1048, day 11, cell count; read-out: H1048 GI50.
Excerpt: as §1
SCLC: SCLC cell lines NCI-H1048 and NCI-H1876 were cultured in DMEM F12 media with 5% FBS, 1% Penicillin/Streptomycin and HITES supplement (Hydrocortisone, Insulin, Transferrin, Estradiol and Sodium Selenite). NCI-H1048 cells were plated at 10,000 cells/well of a 24-well plate and NCI-H1876 cells were plated at 20,000 cells/well of a 96-well plate. Compound and media were replenished every two days out to day 11 and 10 respectively. Cells were then trypsinized and counted using either hemocytometer or an automated Countess cell counter.
as §2

Test [1] addresses T1, KAT2A (Homo sapiens, UniProt Q92830). Put plainly: KAT2A degradation, Western Blot (Jess), NCI-H1048 cells. It is filed as cell-based. Also on record: degrader, Western blot (Jess). The settings on record: NCI-H1048 cells, KAT2A, 24 h, Western Blot, vs DMSO; read-out: KAT2A NCI-H1048 DC50. An outline of the steps: (§3)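 DC50 came from protein loss relative to DMSO, measured by Jess capillary immunoblot of RIPA lysates with chemiluminescence read-out. Before lysis, NCI-H1048 cells in 5% FBS HITES medium were exposed to compound for 24 h at 37° C.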
On the technique in general: Immunoblotting shows a protein as a band on a membrane.

In a further test the target is KAT2B (Homo sapiens, UniProt Q92831). Put plainly: KAT2B degradation, Western Blot (Jess), NCI-H1048 cells. It is filed as cell-based. The following applies: NCI-H1048 cells, KAT2B, 24 h, Western Blot, vs DMSO; read-out: KAT2B NCI-H1048 DC50. Also on record: degrader, Western blot (Jess). Put shortly: as §3
KAT2B, sequence (Q92831 whole entry): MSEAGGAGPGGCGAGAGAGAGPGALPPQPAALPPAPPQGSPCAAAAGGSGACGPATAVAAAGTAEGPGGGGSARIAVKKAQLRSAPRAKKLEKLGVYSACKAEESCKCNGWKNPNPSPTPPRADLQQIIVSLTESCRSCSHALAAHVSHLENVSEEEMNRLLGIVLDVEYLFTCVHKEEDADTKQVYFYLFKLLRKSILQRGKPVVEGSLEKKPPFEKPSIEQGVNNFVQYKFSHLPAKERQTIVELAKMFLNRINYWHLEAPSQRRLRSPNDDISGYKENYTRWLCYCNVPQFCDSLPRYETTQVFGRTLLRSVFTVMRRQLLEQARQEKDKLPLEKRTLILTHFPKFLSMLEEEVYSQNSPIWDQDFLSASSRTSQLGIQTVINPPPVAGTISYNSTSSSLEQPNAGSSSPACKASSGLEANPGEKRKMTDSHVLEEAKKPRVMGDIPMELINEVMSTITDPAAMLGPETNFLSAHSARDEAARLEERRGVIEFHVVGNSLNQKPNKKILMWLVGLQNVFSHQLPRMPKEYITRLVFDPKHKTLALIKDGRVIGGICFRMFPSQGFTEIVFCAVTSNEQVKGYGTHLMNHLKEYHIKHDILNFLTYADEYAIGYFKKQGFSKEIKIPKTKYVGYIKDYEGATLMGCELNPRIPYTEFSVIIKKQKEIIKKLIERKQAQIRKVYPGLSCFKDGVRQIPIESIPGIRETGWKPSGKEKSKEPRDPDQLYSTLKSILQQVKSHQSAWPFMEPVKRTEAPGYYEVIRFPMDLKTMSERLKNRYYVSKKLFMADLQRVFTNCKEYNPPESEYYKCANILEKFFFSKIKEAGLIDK
The target in test [2] is T1, KAT2A. Put plainly: KAT2A degradation, Western Blot (Jess), MOLM-13 cells. Details: degrader, Western blot. The settings on record: MOLM-13 cells, KAT2A, 24 h, Western Blot, vs DMSO; read-out: KAT2A MOLM-13 DC50. Format: cell-based. An outline of the steps: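 MOLM-13 cells in RPMI 1640/20% FBS were treated with compound for 24 h at 37 °C. RIPA lysates (4 μg) were run on a capillary Western (Jess) with anti-KAT2A antibody and chemiluminescent detection. DC50 comes from percent protein reduction versus DMSO control.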

Where only a bound is given, the exact number is not on record here.

T1 sequence (Q92830 whole entry): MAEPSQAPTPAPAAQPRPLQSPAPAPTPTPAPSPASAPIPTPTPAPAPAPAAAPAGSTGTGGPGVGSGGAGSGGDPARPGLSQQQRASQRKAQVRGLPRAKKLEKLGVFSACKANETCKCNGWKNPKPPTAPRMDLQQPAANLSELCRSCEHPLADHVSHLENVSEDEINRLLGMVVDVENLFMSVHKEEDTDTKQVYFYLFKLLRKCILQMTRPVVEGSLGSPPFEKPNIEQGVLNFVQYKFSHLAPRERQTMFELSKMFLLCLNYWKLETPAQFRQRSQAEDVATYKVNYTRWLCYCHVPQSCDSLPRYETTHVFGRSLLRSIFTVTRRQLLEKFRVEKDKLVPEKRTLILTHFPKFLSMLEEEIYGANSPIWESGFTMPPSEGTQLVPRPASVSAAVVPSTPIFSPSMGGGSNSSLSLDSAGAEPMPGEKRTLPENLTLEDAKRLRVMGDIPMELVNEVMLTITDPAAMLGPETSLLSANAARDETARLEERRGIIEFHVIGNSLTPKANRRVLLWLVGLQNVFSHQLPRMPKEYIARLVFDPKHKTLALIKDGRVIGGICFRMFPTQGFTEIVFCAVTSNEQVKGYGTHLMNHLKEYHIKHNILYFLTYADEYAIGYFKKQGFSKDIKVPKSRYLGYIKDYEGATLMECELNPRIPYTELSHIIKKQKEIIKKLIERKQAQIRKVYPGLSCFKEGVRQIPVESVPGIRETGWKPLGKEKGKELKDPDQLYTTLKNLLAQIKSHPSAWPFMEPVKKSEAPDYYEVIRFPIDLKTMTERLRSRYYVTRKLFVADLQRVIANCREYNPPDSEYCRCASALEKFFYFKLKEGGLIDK

As usually defined, the GI50 is the concentration at which growth is held to half of that of the control. With `CN1C[C@H](Nc2cnn(C)c(=O)c2Br)C[C@H](c2ccc(C(=O)N3CCN(Cc4ccc(C(=O)Nc5ccc6c(c5)CN(C5CCC(=O)NC5=O)C6=O)cc4)CC3)cc2)C1` (stereo partly drawn) [Compound 2-15], the figures for the concentration for 50% growth inhibition (GI50) in the test on MOLM-13 cells and with NCI-H1048 cells were 5.2 nM and 2 nM, respectively.
What is called DC50 is the concentration giving 50% degradation. For the compound `CN1C[C@H](Nc2cnn(C)c(=O)c2Br)C[C@H](c2ccc(COc3ccc4c(c3)C(=O)N(C3CCC(=O)NC3=O)C4=O)cc2)C1` (stereo partly drawn) [Compound 39], the GI50 with MOLM-13 cells came out at 5.6 nM. In addition, the DC50 was below 1 nM on KAT2A [1], 1 to 30 nM at KAT2B and below 1 nM on KAT2A [2].
`CN1C[C@H](Nc2cnn(C)c(=O)c2Br)C[C@H](c2ccc(C(=O)N3CCC(CN4CCN(c5ccc6c(c5)C(=O)N(C5CCC(=O)NC5=O)C6=O)CC4)CC3)cc2)C1` (stereo partly drawn) [Compound 40]: in the test with MOLM-13 cells, the GI50 was 7.8 nM. At KAT2A [2], the half-maximal degradation concentration (DC50) is below 1 nM.
Turning to `CN1C[C@H](Nc2cnn(C)c(=O)c2Br)C[C@H](c2ccc(CN3CCN(c4cccc([C@H]5CCC(=O)NC5=O)c4)CC3)cc2)C1` [Compound 84, 3-[3-[4-[[4-[(3R,5R)-5-[(5-bromo-1-methyl-6-oxo-pyridazin-4-yl)amino]-1-methyl-3-piperidyl]phenyl]methyl]piperazin-1-yl]phenyl]piperidine-2,6-dione], in the test with MOLM-13 cells, the GI50 was 1.1 nM. Besides, the DC50 on KAT2A [1] is below 1 nM; at KAT2B it was 1 to 30 nM; on KAT2A [2], below 1 nM.
For the compound `CN1C[C@H](Nc2cnn(C)c(=O)c2Br)C[C@H](c2ccc(CN3CCC(Oc4ccc(C5CCC(=O)NC5=O)cc4)CC3)cc2)C1` (stereo partly drawn) [Compound 86], the GI50 came to 1.7 nM in the test with MOLM-13 cells and 11 nM in the test on NCI-H1048 cells. Besides, the DC50 at KAT2A [1] is below 1 nM; on KAT2B, 1 to 30 nM; at KAT2A [2], below 1 nM.
As for `CN1C[C@H](Nc2cnn(C)c(=O)c2Br)C[C@H](c2ccc(C(=O)N3CCC4(CC3)CCN(c3ccc(C5CCC(=O)NC5=O)cc3)CC4)cc2)C1` (stereo partly drawn) [Compound 90, 3-[4-[3-[4-[(3R,5R)-5-[(5-bromo-1-methyl-6-oxo-pyridazin-4-yl)amino]-1-methyl-3-piperidyl]benzoyl]-3,9-diazaspiro[5.5]undecan-9-yl]phenyl]piperidine-2,6-dione], the values for the 50% growth inhibitory concentration (GI50) in the test with MOLM-13 cells and with NCI-H1048 cells were 0.9 nM and 1.5 nM, respectively. For the same compound, the DC50 on KAT2A [1], at KAT2B and at KAT2A [2] was below 1 nM each time.
For the compound `CN1C[C@H](Nc2cnn(C)c(=O)c2Cl)C[C@H](c2ccc(C(=O)N3CCC4(CC3)CCN(c3ccc(C5CCC(=O)NC5=O)cc3)CC4)cc2)C1` (stereo partly drawn) [Compound 145, 3-[4-[3-[4-[(3R,5R)-5-[(5-chloro-1-methyl-6-oxo-pyridazin-4-yl)amino]-1-methyl-3-piperidyl]benzoyl]-3,9-diazaspiro[5.5]undecan-9-yl]phenyl]piperidine-2,6-dione], the GI50 in the test with MOLM-13 cells was determined as 1 nM. For the same compound, the DC50 on KAT2A [1], at KAT2B and on KAT2A [2] was below 1 nM each time.
With `CN1C[C@H](Nc2cnn(C)c(=O)c2Br)C[C@H](c2ccc(C(=O)N3CCC4(CC3)CCN(c3ccc(C5CCC(=O)NC5=O)cc3F)CC4)cc2)C1` (stereo partly drawn) [Compound 146], the GI50 in the test with MOLM-13 cells was found to be 5.9 nM. For the same compound, the DC50 on KAT2A [1], at KAT2B and on KAT2A [2] was below 1 nM in each case.
Consider `CN1C[C@H](Nc2cnn(C)c(=O)c2Br)C[C@H](c2ccc(C(=O)N3CCC4(CC3)CCN(c3ccc(C5CCC(=O)NC5=O)c(F)c3)CC4)cc2)C1` (stereo partly drawn) [Compound 157, 3-[4-[3-[4-[(3R,5R)-5-[(5-bromo-1-methyl-6-oxo-pyridazin-4-yl)amino]-1-methyl-3-piperidyl]benzoyl]-3,9-diazaspiro[5.5]undecan-9-yl]-2-fluoro-phenyl]piperidine-2,6-dione], for which the GI50 in the test with MOLM-13 cells was found to be 0.9 nM. Further, the DC50 on KAT2A [1], at KAT2B and at KAT2A [2] was below 1 nM throughout.
As to `Cc1cc(N2CCC3(CCN(C(=O)c4ccc([C@H]5C[C@@H](Nc6cnn(C)c(=O)c6Br)CN(C)C5)cc4)CC3)CC2)ccc1C1CCC(=O)NC1=O` (stereo partly drawn) [Compound 167], the GI50 in the test on MOLM-13 cells was 4.8 nM. Further, the DC50 on KAT2A [1], at KAT2B and on KAT2A [2] was below 1 nM throughout.
With `Cc1c(N[C@@H]2C[C@H](c3ccc(C(=O)N4CCC5(CC4)CCN(c4ccc(C6CCC(=O)NC6=O)c(F)c4)CC5)cc3)CN(C)C2)cnn(C)c1=O` (stereo partly drawn) [Compound 229, 3-[4-[3-[4-[(3R,5R)-5-[(1,5-dimethyl-6-oxo-pyridazin-4-yl)amino]-1-methyl-3-piperidyl]benzoyl]-3,9-diazaspiro[5.5]undecan-9-yl]-2-fluoro-phenyl]piperidine-2,6-dione], the GI50 in the test on MOLM-13 cells worked out at 0.7 nM. Also, the DC50 at KAT2A [1] and on KAT2B was below 1 nM in each case.
For `CN1C[C@H](Nc2cnn(C)c(=O)c2Cl)C[C@H](c2ccc(C(=O)N3CCC4(CCC(c5ccc(C6CCC(=O)NC6=O)cc5F)CC4)CC3)cc2)C1` (stereo partly drawn) [Compound 231], in the test on MOLM-13 cells, the concentration for 50% growth inhibition (GI50) came to 7.3 nM. Further, the figures for the 50% degradation concentration (DC50) at KAT2A [1] and at KAT2B were below 1 nM and 1 to 30 nM, respectively.
The matching figures for `COc1cc(N2CCC3(CCN(C(=O)c4ccc([C@H]5C[C@@H](Nc6cnn(C)c(=O)c6Cl)CN(C)C5)cc4)CC3)CC2)ccc1C1CCC(=O)NC1=O` (stereo partly drawn) [Compound 232]: 5.2 nM, below 1 nM and 1 to 30 nM.
Taken in the same sequence, the figures for `CN1C[C@H](Nc2cnn(C)c(=O)c2Cl)C[C@H](c2ccc(C(=O)N3CCC4(CC3)CCN(c3ccc(C5CCC(=O)NC5=O)nc3)CC4)cc2)C1` (stereo partly drawn) [Compound 233] were 5.5 nM, below 1 nM and 1 to 30 nM.
Turning to `COc1cc(C2CCC(=O)NC2=O)ccc1N1CCC2(CCN(C(=O)c3ccc([C@H]4C[C@@H](Nc5cnn(C)c(=O)c5Br)CN(C)C4)cc3)CC2)CC1` (stereo partly drawn) [Compound 238], the values for the GI50 in the test with MOLM-13 cells and with NCI-H1048 cells were 20 nM and 60 nM, respectively. Besides, the 50% degradation concentration (DC50) at KAT2A [1] was below 1 nM; on KAT2B, 1 to 30 nM.
On to `Cc1cc(N2CCC3(CCN(C(=O)c4ccc([C@H]5C[C@@H](Nc6cnn(C)c(=O)c6Cl)CN(C)C5)cc4)CC3)CC2)c(F)cc1C1CCC(=O)NC1=O` (stereo partly drawn) [Compound 242], for which the GI50 with MOLM-13 cells is above 100 nM. For the same compound, the DC50 at KAT2A [1] was 1 to 30 nM; on KAT2B, above 30 nM.
Taken in the same sequence, the figures for `Cc1cc(N2CCC3(CCN(C(=O)c4ccc([C@H]5C[C@@H](Nc6cnn(C)c(=O)c6Br)CN(C)C5)cc4)CC3)CC2)c(F)cc1C1CCC(=O)NC1=O` (stereo partly drawn) [Compound 243] were above 100 nM, 1 to 30 nM and above 30 nM.
As for `Cc1cc(C2CCC(=O)NC2=O)ccc1N1CCC2(CCN(C(=O)c3ccc([C@H]4C[C@@H](Nc5cnn(C)c(=O)c5Cl)CN(C)C4)cc3)CC2)CC1` (stereo partly drawn) [Compound 250], the GI50 in the test with MOLM-13 cells was 3.7 nM. Moreover, the DC50 at KAT2A [1] and on KAT2B was below 1 nM in each case.
Regarding `CN1C[C@H](Nc2cnn(C)c(=O)c2Cl)C[C@H](c2ccc(C(=O)N3CCC4(CC3)CCN(c3ccc(OC5CCC(=O)NC5=O)cc3)CC4)cc2)C1` (stereo partly drawn) [Compound 362], the GI50 in the test on MOLM-13 cells worked out at 33.3 nM. Moreover, the 50% degradation concentration (DC50) at KAT2A [1] is below 1 nM; at KAT2B it was 1 to 30 nM.
The matching figures for `CN1C[C@H](Nc2cnn(C)c(=O)c2Br)C[C@H](c2ccc(C(=O)N3CCC4(CC3)CCN(c3ccc(OC5CCC(=O)NC5=O)cc3)CC4)cc2)C1` (stereo partly drawn) [Compound 363]: 5.7 nM, below 1 nM and 1 to 30 nM.
